Series [1] can be described thus: UV absorption spectra in solution. The format is physicochemical. The note with it: for λmax: in dioxane (Tables 1-3); for λ1/2-λ1/10: on the shortwave slope (Tables 1-3); for UV (DMF): λmax: in DMF; for UV (dioxane): λmax: in dioxane. The source says:
For a, preferably singly recordable, optical data carrier according to the invention which is written and read by light from a blue laser such merocyanine dyes are preferred whose absorption maximum λmax2 is in the range from 420 bis 550 nm, wherein the wavelength λ½ at which the extinction on the shortwave slope of the absorption maximum of the wavelength λmax2 is half the extinction value at λmax2 and the wavelength λ 1/10 at which the extinction on the shortwave slope of the absorption maximum of the wavelength λmax2 is a tenth of the extinction value at λmax2, are preferably in each case no further than 50 nm away from each other.
The absorption spectra are measured for example in solution.
Suitable merocyanines having the required spectral properties are in particular those in which the change in dipole moment Δμ=|μg-μag|, i.e. the positive difference between the dipole moments in the ground state and in the first excited state, is as small as possible, preferably <5 D, and particularly preferably <2 D. One method of determining such a change in dipole moment Δμ is described for example in F. Würthner et al., Angew. Chem. 1997, 109, 2933 and in the literature cited therein. Low solvatochromism (dioxane/DMF) is also a suitable criterion for selection. Merocyanines are preferred whose solvatochromism Δλ=|λDMF-λdioxane|, i.e. the positive difference between the absorption wavelengths in the solvents dimethylformamide and dioxane is <20 nm, particularly preferably <10 nm and very particularly preferably <5 nm.

Series [2] can be described thus: Recording/readout test of optical disc with vapour-deposited phthalocyanine information layer. The source says:
Directly on top of the grooved surface the information layer of 40 nm was coated by vacuum vapor deposition method. […] Total thickness of the adhesive layer and the cover layer was set as 100 μm.
The parameters of readout/recording setup was as follows.
Numerical aperture of the objective lens=0.85, two element lens
Readout laser power=0.30 mW
Writing laser power=6.0 mW
Pulse strategy=7 pulses with 50% duty inside one mark
The dye dichloro-silicon-phthalocyanine (SiCl2Pc) was applied for the information layer.

Series [3] in a line: Solubility in coating solvent. The format is physicochemical. The note with it: in TFP (2,2,3,3-tetrafluoropropanol).
The nature of series [4]: UV absorption spectra in solution. The format is physicochemical.
The mark [5] stands for this setting: = |λDMF − λdioxane| (Tables 1-3).
Setting [6] is: molar extinction coefficient at absorption maximum.

Like-named read-outs stand apart in the source and are kept apart here. Where only a bound is given, the exact number is not on record here.

As for `C=C1N(C)c2ccc(C)cc2C1(C)C` [Example 63], the Δλ in series [1] (setting [5]) was found to be 6 nm. This compound also came in with a ε in series [1] (Tables 1-3) of 41530 L/mol/cm. For the same compound, in series [1], the λmax was 503 nm and the λ1/2-λ1/10 is reported as 36^3) nm.

Turning to “dichloro-silicon-phthalocyanine [Example 2]”, the readout stability result in series [2] (SiO2 buffer layer and PSA layer, 100 μm cover) is given as “very high”.

With `CN1/C(=C\C=C(\C#N)c2nc3ccccc3s2)C(C)(C)c2ccccc21` [Example 76], in series [1], the λmax came out at 462 nm and the λ1/2-λ1/10 is given as 34^3) nm.

In turn, `Cc1cnc(N(C)C)s1` [Example 28] gave a Δλ in series [1] (setting [5]) of 16 nm. Further, the ε in series [1] (Tables 1-3) was 40990 L/mol/cm. Moreover, in series [1], the λmax is 470 nm and the λ1/2-λ1/10 was 32^3) nm.

For the compound `[Cl][Al]1[n]2c3c4ccccc4c2/N=C2N=C(/N=c4/c5ccccc5/c([n]41)=N/C1=NC(=N\3)/c3ccccc31)c1ccccc1\2` [Example 1, monochloro-aluminium-phthalocyanine], the readout stability entry in series [2] was “surprisingly good”.

Consider `CCCN1C(=O)C(C#N)=C(C)/C(=C\C=C\N(C)c2ccc(OC)cc2)C1=O` [Example 25], for which, in series [1], the “UV (DMF): λmax” value was found to be 477 nm, the “UV (dioxane): λmax” value is listed as 482 nm and the “λ½-λ1/10 (shortwave slope)” value turned out to be 33 nm. This compound also gave a ε in series [1] (setting [6]) of 73013 L/mol/cm. The compound further yielded a Δλ in series [1] (solvatochromism |λDMF-λdioxane|) of 5 nm. Moreover, the Solubility in series [3] is above 2%.

For the compound `CC1=C([n+]2ccccc2)C(=O)NC(=O)/C1=C/C=C1\N(C)c2ccccc2C1(C)C` [Example 26], the “UV (methanol): λmax” value in series [1] (in methanol) is given as 513 nm. The ε in series [1] (setting [6]) was 86510 L/mol/cm. Also, in series [1], the “λ½-λ1/10 (shortwave slope)” value was 38 nm.

Turning to `CCCCN1C(=O)C(C#N)=C(C)/C(=C\C=C2/N(C)c3ccccc3C2(C)C)C1=O` [Example 24], in series [1], the “UV (DMF): λmax” value was 522 nm and the “UV (dioxane): λmax” value came out at 520 nm. In series [3], the Solubility was above 2%. The “λ½-λ1/10 (longwave slope)” value in series [4] is 12 nm.

For `C=C1N(CCCCN2C(=C)C(C)(C)c3ccccc32)c2ccccc2C1(C)C` [Example 77], the λmax in series [1] is 500 nm.

Take `C=C1N(C)c2ccccc2C1(C)C` [Example 56]: the Δλ in series [1] (setting [5]) worked out at 5 nm. This compound came in with a ε in series [1] (Tables 1-3) of 46470 L/mol/cm. Besides, in series [1], the λmax was determined as 499 nm and the λ1/2-λ1/10 is 36^3) nm.

Take `CCCCCCCCCCCCN1C(=O)/C(=C/c2ccc(N(C)C)o2)C(=O)N(C)C1=O` [Example 27]: in series [1], the “UV (dioxane): λmax” value was 483 nm and the “λ½-λ1/10 (shortwave slope)” value is listed as 32 nm.

Source of the values: patent publication US20030113665A1, “Optical data medium containing, in the information layer, a dye as a light-absorbing compound” (priority 2001, published 2003).
